# Laboratory results taken from patent publication US20060079540A1, “Pde4 and pde3/4 inhibitors for use in the treatment of cachexia” (Altana Pharma AG, priority 2002, published 2006).
# Columns and labels:
# Format in all cases: cell-based, human
# [1] = tested on: secretion of IL-1 from LXFA 526 lung adenocarcinoma Xenograft explants; assay: IL-1 secretion from LXFA 526 lung adenocarcinoma xenograft explants (ELISA); settings: for IL-1 content of the supernatants: 24 hours, DMSO control 85.3 pg/ml
# Protocol: (§1) FIG. 1: Effects of Zardaverine (left graph) and Piclamilast (right graph) on the secretion of IL-1 from LXFA 526 lung adenocarcinoma Xenograft explants. Tumor fragments from mice carrying LXFA 526 xenografts were excised and cell suspensions were seeded into 24 Well plates. After seeding of the cells, Zardaverine at concentrations of 100, 3, and 0.1 μM, respectively, and Piclamilast at concentrations of 1, 0.3 and 0.001 μM, respectively were added and supernatants were harvested 24 hours later. IL-1 content of the supernatants was quantitated using R&D Quantikine ELISA kits according to the manufacturer's recommendations.
# (§2) To this end primary cultures of tumor cells were derived from cachexia inducing human xenografts grown subcutaneously in nude mice.
# (§3) 5 to 10 NMRI nude mice were implanted with tumor fragments derived from the above mentioned Xenografts and grown until the tumors reached approximately 0.5 g, which correlated well with the onset of cachexia. Animals were then sacrificed and tumors were excised. Cells were subsequently isolated under sterile conditions by the use of mechanic disintegrators, proteases, hyaluronidase, and DNAse I. The crude suspension was passed twice through sterile sieves with diameters of 200 and 50 μM, respectively.
# (§4) Washed cell pellets were resuspended in Iscove's modified Dulbecco's Medium +20% FCS (fetal calf serum) and 0.24 to 1×10^6 tumor cells were seeded in 24 well plates. The cell isolates not only contained tumor cells, but also blood cells and stromal elements of murine origin. The cell lines RXF 486L was directly utilized and 1×10^6 cells were seeded into each well.
# (§5) Piclamilast and Zardaverine were dissolved in 100% DMSO (dimethyl sulfoxide) and applied at a final concentration of 1 μM to 0.001 μM (Piclamilast) or 100 μM to 0.1 μM (Zardaverine). Drugs and cells were plated at the same time. 24 hours after seeding supernatants were collected, centrifuged, and stored at −80° C.
# (§6) For the quantitative measurement of IL-1, IL-6, and TNFα, respectively, the supernatants were analyzed using Quantikine ELISA Kits from R&D Systems according to the manufacturer's recommendations.
# [2] = tested on: secretion of TNFα from LXFE 397 epidermoid adenocarcinoma Xenograft explants; assay: TNFα secretion from LXFE 397 epidermoid adenocarcinoma xenograft explants (ELISA); settings: for TNFα content of the supernatants: 24 hours
# Protocol: FIG. 4: Effects of Zardaverine (left graph) and Piclamilast (right graph) on the secretion of TNFα from LXFE 397 epidermoid adenocarcinoma Xenograft explants. Tumor fragments from mice carrying LXFE 397 xenografts were excised and cell suspensions were seeded into 24 Well plates. After seeding of the cells, Zardaverine at concentrations of 30, 10, and 3 μM, respectively, and Piclamilast at concentrations of 0.3; 0.1; and 0.03 μM, respectively were added and supernatants were harvested 24 hours later. TNFα content of the supernatants was quantitated using R&D Quantikine ELISA kits according to the manufacturers recommendations.
# as §2, §3, §4, §5, §6
# [3] = tested on: secretion of TNFα from LXFA 526 lung adenocarcinoma Xenograft explants; assay: TNFα secretion from LXFA 526 lung adenocarcinoma xenograft explants (ELISA); settings: for TNFα content of the supernatants: 24 hours, DMSO control 16.8 pg/ml
# Protocol: as §1, with “3:” for “1:”, “TNFα” for “IL-1”
# as §2, §3, §4, §5, §6
# [4] = tested on: secretion of IL-1 from RXF 393 hypernephroma Xenograft explants; assay: IL-1 secretion from RXF 393 hypernephroma xenograft explants (ELISA); settings: for IL-1 content of the supernatants: 24 hours, DMSO control 46.9 pg/ml
# Protocol: as §1, with “2:” for “1:”, “RXF 393 hypernephroma” for “LXFA 526 lung adenocarcinoma”, “RXF 393” for “LXFA 526”, “100” for “100, 3,”, “0.01” for “0.3”
# as §2, §3, §4, §5, §6
structure (smiles),measurement,setting,value
COc1cc(-c2ccc(=O)[nH]n2)ccc1OC(F)F [Zardaverine],IL-1 content of the supernatants,[1]; 0.1 μM,77.1 pg/mL
same,IL-1 content of the supernatants,[1]; 3 μM,67.9 pg/mL
same,IL-1 content of the supernatants,[1]; 100 μM,64.5 pg/mL
same,TNFα content of the supernatants,"[2]; 3 μM, DMSO control 30.3 pg/ml",27.7 pg/mL
same,TNFα content of the supernatants,"[2]; 10 μM, DMSO control 30.3 pg/ml",28.2 pg/mL
same,TNFα content of the supernatants,"[2]; 30 μM, DMSO control 30.3 pg/ml",20.1 pg/mL
same,TNFα content of the supernatants,[3]; 0.1 μM,13.8 pg/mL
same,TNFα content of the supernatants,[3]; 3 μM,12.9 pg/mL
same,TNFα content of the supernatants,[3]; 100 μM,12.6 pg/mL
same,IL-1 content of the supernatants,[4]; 0.1 μM,48.1 pg/mL
same,IL-1 content of the supernatants,[4]; 100 μM,32.1 pg/mL
COc1ccc(C(=O)Nc2c(Cl)cncc2Cl)cc1OC1CCCC1 [Piclamilast],IL-1 content of the supernatants,[1]; 0.001 μM,81.9 pg/mL
same,IL-1 content of the supernatants,[1]; 0.3 μM,64.4 pg/mL
same,IL-1 content of the supernatants,[1]; 1 μM,68.9 pg/mL
same,Modulation of IL-1 expression (in words),[1]; LXFA 526,able to suppress IL-1 levels
same,TNFα content of the supernatants,"[2]; 0.03 μM, DMSO control 21.5 pg/ml",14.1 pg/mL
same,TNFα content of the supernatants,"[2]; 0.1 μM, DMSO control 21.5 pg/ml",12.1 pg/mL
same,TNFα content of the supernatants,"[2]; 0.3 μM, DMSO control 21.5 pg/ml",10 pg/mL
same,modulation of TNFα levels (in words),[2]; LXFE 397 model,able to inhibit the secretion of TNFα
same,TNFα content of the supernatants,[3]; 0.001 μM,17.2 pg/mL
same,TNFα content of the supernatants,[3]; 0.3 μM,15.1 pg/mL
same,TNFα content of the supernatants,[3]; 1 μM,13.9 pg/mL
same,modulation of TNFα levels (in words),[3]; LXFA 526 cells,able to inhibit the secretion of TNFα
same,IL-1 content of the supernatants,[4]; 0.001 μM,43.2 pg/mL
same,IL-1 content of the supernatants,[4]; 0.01 μM,43.9 pg/mL
same,IL-1 content of the supernatants,[4]; 1 μM,37.8 pg/mL
same,Modulation of IL-1 expression (in words),[4]; RXF 393,able to suppress IL-1 levels
